IC50 data for one molecule are collected here from BindingDB's records for doi:10.1021/jm0494669 (Italy. Vinc, 2004).

SMILES strings stand for the structures.

The target in the assay is RNA-directed RNA polymerase (Hepacivirus hominis, UniProt Q8JXU8). Nature of the assay: Inhibitory concentration required to inhibit HCV RNA dependent RNA polymerase Nonstructural protein 5B is determined.
Sequence of RNA-directed RNA polymerase (Q8JXU8 whole entry): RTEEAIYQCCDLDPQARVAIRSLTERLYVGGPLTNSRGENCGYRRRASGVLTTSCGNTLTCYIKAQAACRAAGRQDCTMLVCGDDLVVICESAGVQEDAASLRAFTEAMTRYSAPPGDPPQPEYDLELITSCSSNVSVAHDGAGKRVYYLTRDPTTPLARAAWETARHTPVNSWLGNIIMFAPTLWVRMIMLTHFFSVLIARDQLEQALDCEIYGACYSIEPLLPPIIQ

Take `O=C(O)C(=O)CC(=O)c1ccccc1`: the half-inhibitory concentration (IC50) (as a rule, the concentration at which inhibition is half-maximal) amounted to 5.7 µM.
